PMC10434765, “Exploring the potential of propanamide-sulfonamide based drug conjugates as dual inhibitors of urease and cyclooxygenase-2: biological and their in silico studies” (Frontiers in Chemistry, 2023)
Where two headings read alike, the source gives them in different places.

Assays:
[1] = target: T1, jack bean urease (Canavalia ensiformis, UniProt P07374); conditions: for Vmax (app): maximum rate at 20 µM of inhibitor concentration; for Mode of inhibition: urea 0.5-4.0 mM, inhibitor 0-20 µM; for % inhibition of urease: value in parentheses beside IC50, n = 3, concentration not given
T1 sequence (P07374 whole entry, looked up): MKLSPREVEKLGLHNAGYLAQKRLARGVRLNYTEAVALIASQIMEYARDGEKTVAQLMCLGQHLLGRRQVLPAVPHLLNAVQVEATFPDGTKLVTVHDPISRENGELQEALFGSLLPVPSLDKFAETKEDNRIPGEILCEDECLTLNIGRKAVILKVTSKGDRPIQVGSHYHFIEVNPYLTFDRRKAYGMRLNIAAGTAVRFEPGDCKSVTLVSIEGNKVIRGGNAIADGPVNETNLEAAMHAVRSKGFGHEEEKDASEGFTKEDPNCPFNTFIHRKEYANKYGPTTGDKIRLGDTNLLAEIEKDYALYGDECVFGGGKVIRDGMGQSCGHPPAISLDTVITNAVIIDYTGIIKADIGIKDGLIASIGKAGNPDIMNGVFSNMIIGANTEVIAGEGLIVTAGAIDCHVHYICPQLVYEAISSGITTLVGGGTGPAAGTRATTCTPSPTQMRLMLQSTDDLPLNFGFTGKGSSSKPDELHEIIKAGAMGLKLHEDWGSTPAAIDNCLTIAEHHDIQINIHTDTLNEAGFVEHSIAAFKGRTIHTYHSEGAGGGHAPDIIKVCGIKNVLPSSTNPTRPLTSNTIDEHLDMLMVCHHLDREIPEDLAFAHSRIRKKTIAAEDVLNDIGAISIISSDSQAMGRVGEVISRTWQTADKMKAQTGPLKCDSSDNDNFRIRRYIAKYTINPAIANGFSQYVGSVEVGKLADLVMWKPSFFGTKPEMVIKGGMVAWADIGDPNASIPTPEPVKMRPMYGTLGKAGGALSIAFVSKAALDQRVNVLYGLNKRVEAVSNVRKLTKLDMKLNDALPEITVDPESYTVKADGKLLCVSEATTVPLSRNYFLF

[2] = target: T2, COX-2 enzyme (Homo sapiens, UniProt P35354); test: COX-2 inhibitory assay (Cayman kit); format: biochemical; conditions: n = 3
T2 construct: purchased Cayman Chemical Company, United States Item No. 760151
T2 sequence (P35354 18-604): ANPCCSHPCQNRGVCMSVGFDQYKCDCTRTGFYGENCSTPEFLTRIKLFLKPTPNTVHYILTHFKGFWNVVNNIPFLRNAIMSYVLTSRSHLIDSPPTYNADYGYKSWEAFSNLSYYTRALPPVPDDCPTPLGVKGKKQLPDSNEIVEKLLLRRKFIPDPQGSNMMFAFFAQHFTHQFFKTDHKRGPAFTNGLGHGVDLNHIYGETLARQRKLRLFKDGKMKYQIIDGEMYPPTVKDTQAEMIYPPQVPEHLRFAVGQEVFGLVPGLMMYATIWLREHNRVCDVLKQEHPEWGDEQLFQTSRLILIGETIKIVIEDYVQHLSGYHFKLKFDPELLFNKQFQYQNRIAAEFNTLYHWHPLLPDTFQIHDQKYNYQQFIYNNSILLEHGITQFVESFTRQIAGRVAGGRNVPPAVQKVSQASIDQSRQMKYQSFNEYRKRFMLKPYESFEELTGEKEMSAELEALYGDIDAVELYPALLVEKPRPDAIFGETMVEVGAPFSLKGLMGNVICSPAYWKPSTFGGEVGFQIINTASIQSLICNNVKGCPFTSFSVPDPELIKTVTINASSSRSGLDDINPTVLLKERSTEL
Description: For the initial activity assay, 150 µL buffer, 10 µL heme, and 10 µL COX-2 enzyme were mixed in a well whereas 110 µL buffer, 10 µL heme, 10 µL COX-2 enzyme, and 40 µL test inhibitor (10 µM) were mixed for inhibitory assay using 96 wells plate.

[3] = target: T1, jack bean urease; test: biochemical
Description: Each tube received 400 µL of urea (20 mM) as substrate, which was then incubated for 10 min at the same temperature.
Each inhibitor’s binding mechanism was tested at various doses (0–20 µM) for kinetics investigations. […] Lineweaver Burk plots were drawn using GraphPad PRISM 7.0 to determine the values of Km (app), Vmax (app), and Ki (inhibition constant).

[4] = system: carrageenan-induced acute inflammation in mice; test: Carrageenan-induced paw edema anti-inflammatory study; format: in vivo; conditions: 10 mg/kg intraperitoneally, n = 6
Description: As previously mentioned in our study, carrageenan-induced acute inflammation in mice was used to measure the anti-inflammatory effect ([Ahmed et al., 2018b]). Six groups of mice were formed and each group comprised six mice, the mice fasted 16 h before of induction of inflammation by injecting the phlogistic agent (carrageenan). The right hind paw of each mouse was measured before and after the 100 µL injection of the carrageenan (1% in 0.9% saline). The test substances, standard medication (indomethacin), and control (0.9% saline) were administered intraperitoneally at 10 mg/kg body weight. For 3 h, and after the 1-h interval, the thickness (mm) of the right hind paw of each mouse was measured. The difference in thickness of paw edema of control and test substance was used to determine the percentage inhibition of inflammation by the formula given below. Percentage inhibition of inflammation=Ct−CocontrolCt−Cotreated/Ct−Cocontrol×100 (2)
Where Ct and Co are the right hind paw thickness after and before carrageenan injection.

SMILES	Vmax (app) ([1]; Lineweaver Burk plot) [µM/min]	Mode of inhibition [1]	% inhibition of urease [1] [%]	inhibition at 10 µM [2] [%]	IC50 [3] [µM]	Ki [3] [µM]	Paw edema in mm (mean ± SEM) ([4]; 0 h)	% inhibition of paw edema ([4]; 1 h) [%]	Paw edema in mm (mean ± SEM) ([4]; 1 h) [mm]	% inhibition of paw edema ([4]; 2 h) [%]	Paw edema in mm (mean ± SEM) ([4]; 2 h) [mm]	% inhibition of paw edema ([4]; 3 h) [%]	Paw edema in mm (mean ± SEM) ([4]; 3 h) [mm]	melting point [°C]	IC50 ([1]; read-out: IC50 (µM), mean ± SEM, jack bean urease, n = 3, thiourea as standard) [µM]	Ki ([1]; read-out: Ki (inhibition constant), secondary Lineweaver Burk plot) [µM]	Km ([1]; read-out: Km (app), Michaelis constant at 20 µM of inhibitor concentration, Lineweaver Burk plot) [µM]
COc1ccc2cc([C@H](C)C(=O)Nc3ccc(S(=O)(=O)Nc4nccs4)cc3)ccc2c1 [Conjugate 5, (S)-2-(6-methoxynaphthalen-2-yl)-N-(4-(N-(thiazol-2-yl)sulfamoyl)phenyl)propanamide]	0.714	Competitive	88.9	61.3	5.82 ± 0.28	5.05	1.81 ± 0.05 (−) mm	9.1	2.71 ± 0.09	43.3	2.57 ± 0.11	75.3	2.43 ± 0.08	184 to 185	–	–	–
COc1ccc2cc([C@H](C)C(=O)Nc3ccc(S(=O)(=O)Nc4cc(C)on4)cc3)ccc2c1 [Conjugate 8, (S)-2-(6-methoxynaphthalen-2-yl)-N-(4-(N-(5-methylisoxazol-3-yl)sulfamoyl)phenyl)propanamide]	–	–	87.6	75.4	29.64 ± 0.27	–	1.80 ± 0.08 (−) mm	24.1	2.56 ± 0.14	47.0	2.51 ± 0.08	82.8	2.23 ± 0.12	178 to 180	–	–	–
COc1ccc2c(c1)c(CC(=O)O)c(C)n2C(=O)c1ccc(Cl)cc1 [Indomethacin, reference compound]	–	–	–	–	–	–	1.81 ± 0.05 (−) mm	20.1	2.61 ± 0.14	55.2	2.41 ± 0.09	86.8	2.14 ± 0.09	–	–	–	–
NC(N)=S [Thiourea, reference compound]	18.61	Competitive	92.3	–	–	–	–	–	–	–	–	–	–	–	22.6 ± 0.23	18.2	2180
COc1ccc2cc([C@H](C)C(=O)Nc3ccc(S(=O)(=O)Nc4onc(C)c4C)cc3)ccc2c1 [Conjugate 4, (S)-N-(4-(N-(3,4-dimethylisoxazol-5-yl)sulfamoyl)phenyl)-2-(6-methoxynaphthalen-2-yl)propanamide]	–	–	94.1	64.5	25.63 ± 0.24	–	1.80 ± 0.04 (−) mm	8.2	2.72 ± 0.12	45.5	2.53 ± 0.09	78.0	2.36 ± 0.11	241 to 243	–	–	–
COc1ccc2cc([C@H](C)C(=O)Nc3ccc(S(=O)(=O)NC(C)=O)cc3)ccc2c1 [Conjugate 9, (S)-N-(4-(N-acetylsulfamoyl)phenyl)-2-(6-methoxynaphthalen-2-yl)propanamide]	0.66	Mixed	85.7	–	20.32 ± 0.12	2.61	–	–	–	–	–	–	–	138 to 140	–	–	–
COc1ccc2cc([C@H](C)C(=O)Nc3ccc(S(=O)(=O)Nc4nccc(C)n4)cc3)ccc2c1 [Conjugate 7, (S)-2-(6-methoxynaphthalen-2-yl)-N-(4-(N-(4-methylpyrimidin-2-yl)sulfamoyl)phenyl)propanamide]	0.602	Mixed	84.3	–	16.57 ± 0.14	9.98	–	–	–	–	–	–	–	160 to 162	–	–	–
COc1ccc2cc([C@H](C)C(=O)O)ccc2c1 [Naproxen, reference compound]	–	–	–	–	–	–	1.81 ± 0.06 (−) mm	21.1	2.60 ± 0.13	46.3	2.53 ± 0.11	76.1	2.41 ± 0.12	–	–	–	–
COc1ccc2cc([C@H](C)C(=O)Nc3ccc(S(=O)(=O)Nc4ncccn4)cc3)ccc2c1 [Conjugate 6, (S)-2-(6-methoxynaphthalen-2-yl)-N-(4-(N-(pyrimidin-2-yl)sulfamoyl)phenyl)propanamide]	0.363	Mixed	90.3	–	4.08 ± 0.1	5.58	–	–	–	–	–	–	–	163 to 165	–	–	–
COc1ccc2cc([C@H](C)C(=O)Nc3ccc(S(N)(=O)=O)cc3)ccc2c1 [Conjugate 3, (S)-2-(6-methoxynaphthalen-2-yl)-N-(4-sulfamoylphenyl)propanamide]	2.57	Competitive	89.4	–	6.69 ± 0.11	2.4	–	–	–	–	–	–	–	208 to 210	–	–	–
COc1ccc2cc([C@H](C)C(=O)Nc3ccc(S(=O)(=O)NC(=N)N)cc3)ccc2c1 [Conjugate 10, (S)-N-(4-(N-carbamimidoylsulfamoyl)phenyl)-2-(6-methoxynaphthalen-2-yl)propanamide]	1.96	Competitive	89.1	–	5.06 ± 0.29	3.56	–	–	–	–	–	–	–	–	–	–	–
